Results: patent US9441012B2, “Fluorinated epoxyketone-based compounds and uses thereof as proteasome inhibitors” (FLUORINOV PHARMA INC., priority 2012, dated 2016)

Experiments:
EKVX = experiment: NCI 60 human tumor cell line screen (SRB); format: cell-based; conditions: EKVX (Non-Small Cell Lung Cancer); 48 h
LP1 myeloma cells = experiment: Combination assays: viability of myeloma LP1 cells (MTS, combination index); format: cell-based, human
Method: To examine whether compounds of Formula I can be combined with other conventional and newer anti-multiple myeloma agents, such as dexamethasone and bortezomib, respectively, LP1 myeloma cells were treated for 72 hours with increasing concentrations of compounds of Formula I in combination with dexamethasone or bortezomib. After incubation, cell growth and viability was measured by the MTS assay. The combination index (CI) analysis, where a CI<1 indicates synergy between two drugs, a CI=1 indicates additivity, and a CI>1 indicates antagonism, was used to determine whether the cytotoxicity produced by the combinations with compounds of Formula I were synergistic, additive, or antagonistic.
The effects of combining these agents with a representative of compounds of Formula I i.e. the compound of Example 1 on the viability of myeloma LP1 cells in culture were assessed. LP1 cells were treated for 72 hours with increasing concentrations of the compound of Example 1 in combination with dexamethasone or bortezomib. After incubation, cell growth and viability was measured by the MTS assay.
The combination of the compound of Example 1 and bortezomib was synergistic with Combination Index values of 0.41, 0.46, and 0.88 at Fraction affected (Fa) levels of 0.39, 0.58, and 0.6, respectively (FIG. 2A).
The combination of the compound of Example 1 and dexamethasone was synergistic with Combination Index values of 0.41, 0.44, and 0.5 at Fraction affected levels of 0.43, 0.5, and 0.64, respectively (FIG. 2B).

[1] = tested on: primary CD138+ myeloma cells; experiment: Viability of primary patient samples (Annexin V, anti-CD138, flow cytometry); format: cell-based, human; conditions: 24 hours
Method: Apoptosis was measured by staining cells treated with compounds of Formula I with annexin V-fluorescein isothiocyanate and propidium iodide (both from Biovision Research Products, Mountain View, Calif.) and flow cytometry according to manufacturer's instructions and as previously described [Blood. 2005, 105(10), 4043-4050]. Experiments were performed at least in duplicate and repeated at least twice (n=4-20 data points). Viable primary myeloma cells were identified by staining with phycoerythrin-conjugated mouse monoclonal anti-CD138 antibody (20 μL/[…] cells; Beckman Coulter, Brea, Calif.). The percentage of myeloma cells that were CD138 positive and annexin V negative after compounds of Formula (I) treatment compared with untreated samples was quantified as a marker of cell viability as previously described [Blood. 2007, 109(12), 5430-5438].
Effects of a representative of compounds of Formula I (the compound of Example 1) on the viability of primary malignant and normal hematopoietic cells isolated from patient samples was also studied. […] Viability of normal hematopoietic cells (CD138−) and myeloma cells (CD138+) were measured by flow cytometry with PE-labeled anti-CD138 and FITC-labeled Annexin V co-staining. […]

[2] = tested on: standard panel of 12 tumor cell lines; experiment: Hollow fiber assay (HFA); format: in vivo, mouse; conditions: ip, 75 mg/kg/dose and 35.5 mg/kg/dose, QD x 4
Method: Hollow fibre assay in vivo pharmacodynamic studies were carried out. This in vivo animal model uses semi-permeable biocompatible fibres that are filled with cancer cells, heat-sealed and implanted surgically (s.c. or i.p.) in mice or rats, which can then be treated with chemotherapeutics. Many different cell lines from different tissue origins and cellular characteristics can be encapsulated within the fibres, providing a cost-effective screening method.
The Oncology Program Screening and Characterization Strategy group at NCI uses HFA, which provides quantitative indices of drug efficacy with minimal expenditures of time and materials. Thus, the HFA is being utilized as the initial in vivo experience for compounds of Formula I.
A total of 3 different tumor lines are prepared for each experiment so that each mouse receives 3 intraperitoneal implants (1 of each tumor line) and 3 subcutaneous implants (1 of each tumor line). A compound is considered for xenograft testing if it produces cell kill of any cell line at either dose level evaluated, or it has a combined ip+sc score of 20 or greater, a sc score of 8 or greater. […]
The compound of Example 1 was evaluated in an HFA assay via ip administration at two doses; a 75 mg/kg/dose and a 35.5 mg/kg/dose, QD […] 4. […]

MM.1S tumor cells = experiment: Myeloma MM.1S mouse xenograft model; format: in vivo
Method: The mice were irradiated (200 rads) using a Co60 irradiator source. After 24 his, each mouse was inoculated subcutaneously with 5×10^6 MM.1S tumor cells in 0.1 ml PBS for tumor development. Treatments were started when the tumor volume reached 100 mm^3. Each treatment group consisted of 10 mice. The compound of Example 1 was administrated to the tumor-bearing mice according to a specific predetermined regimen.

[3] = target: purified beta proteasome subunits from Thermoplasma acidophilum; whole cell lysates from LP1 (Thermoplasma acidophilum, UniProt P28061); experiment: Enzymatic activity of purified proteasomes (FIG. 1); format: biochemical, Thermoplasma acidophilum; human; conditions: compared to bortezomib
Chain of purified beta proteasome subunits from Thermoplasma acidophilum; whole cell lysates from LP1 (P28061 9-211): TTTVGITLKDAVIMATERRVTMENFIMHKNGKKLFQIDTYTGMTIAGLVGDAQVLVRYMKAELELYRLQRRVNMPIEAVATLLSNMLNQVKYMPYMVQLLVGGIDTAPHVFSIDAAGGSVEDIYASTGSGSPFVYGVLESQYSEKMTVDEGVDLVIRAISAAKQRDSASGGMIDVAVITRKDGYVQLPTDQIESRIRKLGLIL
Chain of purified beta proteasome subunits from Thermoplasma acidophilum; whole cell lysates from LP1 (P25156 whole entry partner): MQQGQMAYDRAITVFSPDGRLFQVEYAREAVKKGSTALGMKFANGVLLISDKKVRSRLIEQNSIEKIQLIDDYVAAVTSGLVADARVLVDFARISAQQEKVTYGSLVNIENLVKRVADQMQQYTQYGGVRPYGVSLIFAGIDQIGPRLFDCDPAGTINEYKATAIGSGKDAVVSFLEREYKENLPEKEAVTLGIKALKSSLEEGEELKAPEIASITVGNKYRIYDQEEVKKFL
Method: Purified beta proteasome subunits from the archaebacteria Thermoplasma acidophilum (A) or whole cell lysates from the human myeloma cell line LP1 (B).
Increasing concentrations ([…]) of compounds of Formula (I) and bortezomib were incubated with […] purified beta subunits of proteasomes isolated from Thermoplasma acidophilum in assay buffer supplemented with 2 mM ATP. DMSO alone was used as a control. After 1 hour of incubation at 37° C., the Suc-Leu-Leu-Val-Tyr-AMC substrate was added at a final concentration of 40 μM and CT-L proteasome activity was measured as described above for tumor cell lysates.
Purified beta proteasome subunits from the archaebacteria Thermoplasma acidophilum (A) and whole cell lysates from the human myeloma cell line LP1 (B) were used in the study.

[4] = 100 mg/kg p.o, days 1, 3, 5/wk×4 wks

Structure (SMILES): Cc1ncc(C(=O)N[C@@H](COC(F)F)C(=O)N[C@@H](COC(F)F)C(=O)N[C@@H](Cc2ccccc2)C(=O)[C@@]2(C)CO2)s1 [Example 1, 2-methyl-thiazole-5-carboxylic acid ((S)-1-{(S)-1-[(S)-1-benzyl-2-((R)-2-methyloxiranyl)-2-oxo-ethylcarbamoyl]-2-difluoromethoxyethylcarbamoyl}-2-difluoromethoxyethyl)-amide]
- Log10GI50 (EKVX): −6.22
- Log10LC50 (EKVX): >−4.00
- Log10TGI50 (EKVX): >−4.00
- Combination Index (LP1 myeloma cells; combination with bortezomib, Fraction affected 0.39, LP1, 72 hours): 0.41
- Combination Index (LP1 myeloma cells; combination with bortezomib, Fraction affected 0.58, LP1, 72 hours): 0.46
- Combination Index (LP1 myeloma cells; combination with bortezomib, Fraction affected 0.6, LP1, 72 hours): 0.88
- Combination Index (LP1 myeloma cells; combination with dexamethasone, Fraction affected 0.43, LP1, 72 hours): 0.41
- Combination Index (LP1 myeloma cells; combination with dexamethasone, Fraction affected 0.5, LP1, 72 hours): 0.44
- Combination Index (LP1 myeloma cells; combination with dexamethasone, Fraction affected 0.64, LP1, 72 hours): 0.5
- viability of primary CD138+ myeloma cells over CD138− normal hematopoietic cells ([1]; patient bone marrow or peripheral blood samples): selectively reduced the viability
- cell death in the plasma cells of the myeloma patients ([1]; patient samples): nanomolar concentrations
- cell killing in hollow fiber assay [2]: produced cell killing of multiple cell lines
- antitumor activity vs. control (MM.1S tumor cells; 50 mg/kg p.o, qd×28 days): statically significant antitumor activity
- gross adverse effects including reductions in body weight or alterations in behaviour (MM.1S tumor cells; 50 mg/kg p.o, qd×28 days): no observed gross adverse effects
- antitumor activity vs. control (MM.1S tumor cells; [4]): statically significant antitumor activity
- gross adverse effects including reductions in body weight or alterations in behaviour (MM.1S tumor cells; [4]): no observed gross adverse effects
- effect on the enzymatic activity of purified proteasomes [3]: disrupts the ubiquitin-proteasome system
